The record followed here is PubChem BioAssay (NCI).

Structures are written as SMILES.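 A five-concentration, 48-hour dose response in 96-well plates underlies each endpoint, interpolated linearly between surrounding concentrations. TGI denotes the concentration required for complete inhibition of growth.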 Where a SMILES comes first, the peptide text is derived from it. The star is where a group is joined. Boc = CC(C)(C)OC(=O)*

Among the test systems are HCT-15 colon; DU-145 prostate; CCRF-CEM leukemia; SF-268 CNS; UACC-257 melanoma; HCC-2998 colon; 786-0 renal; SF-539 CNS.
Test in all cases: NCI tumour cell line growth inhibition, 48 h

With `O=C(O)CSc1nnc(COc2ccc(Cl)cc2)n1-c1ccccc1`, the TGI with HCT-15 colon, in the test with DU-145 prostate, with CCRF-CEM leukemia, in the test with SF-268 CNS, in the test with UACC-257 melanoma and in the test with HCC-2998 colon was above 100 µM throughout. The same molecule returned a TGI in the test on 786-0 renal above 100 µM.
As for `Nc1cc(CO)cc(Nc2nc3ccc(Cl)cc3c3[nH]c4ccccc4c23)c1`, the TGI in the test with HCT-15 colon came out at 18.6 µM; in the test with DU-145 prostate, 15.2 µM; in the test with CCRF-CEM leukemia, 23.8 µM; with SF-268 CNS, 10.5 µM; in the test with SF-539 CNS it was 14.1 µM; in the test with UACC-257 melanoma, 23.2 µM. The TGI in the test on 786-0 renal amounted to 6.83 µM.
For the molecule `c1ccc2c(c1)OC(N1CCCC1)c1cnc(N3CCCC3)nc1-2` (stereo unspecified), the TGI with HCT-15 colon was above 100 µM; with DU-145 prostate it was above 100 µM; in the test on CCRF-CEM leukemia it was 67.3 µM; in the test with SF-268 CNS, above 100 µM; in the test on SF-539 CNS it was above 100 µM; in the test on UACC-257 melanoma, 40 µM. Further, the TGI in the test on 786-0 renal was above 100 µM.
With `Cc1ccc(-c2c(C#N)c(-c3ccccc3)n(NS(=O)(=O)c3ccccc3)c(=O)c2C#N)cc1`, the TGI in the test on HCT-15 colon, in the test on CCRF-CEM leukemia, in the test on SF-268 CNS, in the test with SF-539 CNS, in the test on UACC-257 melanoma and in the test on HCC-2998 colon was above 100 µM in each case. Moreover, the TGI in the test with 786-0 renal was above 100 µM.
As for `COC(=O)C1(C(=O)OC)CC2=C(S(=O)(=O)c3ccccc3)C[C@H](S(=O)(=O)c3ccccc3)[C@H]2C1`, the TGI in the test with HCT-15 colon was above 100 µM; in the test with DU-145 prostate it was above 100 µM; in the test on CCRF-CEM leukemia, above 100 µM; in the test with SF-268 CNS, above 100 µM; in the test on UACC-257 melanoma it was above 100 µM; in the test with HCC-2998 colon it was 29.5 µM. Moreover, the TGI in the test with 786-0 renal is above 100 µM.
With `CC(C)(C)C1=C(Br)C(Br)(C(C)(C)C)OP1(=O)c1ccccc1` (stereo unspecified), the TGI with HCT-15 colon, with DU-145 prostate, in the test with SF-268 CNS, in the test on SF-539 CNS, with UACC-257 melanoma and in the test on HCC-2998 colon was above 100 µM each time. The molecule also gave a TGI in the test on 786-0 renal above 100 µM.
On to `C[N+]1=C2[B-](C(C)(C)C)=[N+](C(C)(C)C)[B-]2(C(C)(C)C)[N+](C)=C2[B-](C(C)(C)C)=[N+](C(C)(C)C)[B-]21C(C)(C)C` (stereo unspecified), for which the TGI in the test on HCT-15 colon, with DU-145 prostate, in the test on CCRF-CEM leukemia, with SF-268 CNS, in the test with UACC-257 melanoma and in the test on HCC-2998 colon was above 100 µM in each case. In the test with 786-0 renal, the TGI was above 100 µM.
As for `COC(=O)C(/C(=N/NC(N)=O)C(=O)Nc1ccc(C)cc1)c1nc2ccc([N+](=O)[O-])cc2[nH]c1=O` (stereo unspecified), the TGI in the test with HCT-15 colon, in the test with SF-268 CNS, with SF-539 CNS, in the test with HCC-2998 colon and with 786-0 renal was above 100 µM throughout.
As to `CN(C)CCCOc1nc2c(c(=O)n(C)c(=O)n2C)n1C` (tested in a mixture with another compound), the TGI in the test on HCT-15 colon is 42.9 µM; with DU-145 prostate, 39.5 µM; in the test with CCRF-CEM leukemia, above 100 µM; in the test on SF-268 CNS, above 100 µM; in the test on SF-539 CNS, 58.3 µM; in the test on UACC-257 melanoma it was above 100 µM. This molecule came in with a TGI in the test on 786-0 renal above 100 µM.
With `Cc1nc(-c2ccc([N+](=O)[O-])cc2)cn2c1nc1ccccc12`, the TGI in the test with HCT-15 colon, in the test with DU-145 prostate, in the test on CCRF-CEM leukemia, with SF-268 CNS, with SF-539 CNS and in the test on UACC-257 melanoma was above 100 µM each time. This molecule returned a TGI with 786-0 renal above 100 µM.
With `COC(=O)CNC(=O)C(Cc1ccccc1)NC(=O)C(CCSC)NC(=O)C(Cc1ccc(O)cc1)NC(=O)OC(C)(C)C` (stereo unspecified) (Boc-YMFG-OMe; configuration not given here), the TGI was above 100 µM with HCT-15 colon; above 100 µM in the test with DU-145 prostate; 87.7 µM with SF-268 CNS; above 100 µM in the test with SF-539 CNS; 38.2 µM in the test on UACC-257 melanoma; 64.1 µM with HCC-2998 colon. This molecule also gave a TGI in the test on 786-0 renal above 100 µM.
As to `CC1=C2C(=O)NN=C2CCN1c1ccc(Br)cc1`, the TGI was above 100 µM in the test with HCT-15 colon; above 100 µM in the test on DU-145 prostate; 8.26 µM in the test on CCRF-CEM leukemia; above 100 µM in the test with SF-268 CNS; above 100 µM in the test with SF-539 CNS; above 100 µM in the test on UACC-257 melanoma. Also, the TGI in the test with 786-0 renal is above 100 µM.
As for `S=C(N/N=C\C=N/NC(=S)N1CCCCC1)N1CCCCC1`, the TGI in the test with HCT-15 colon, with DU-145 prostate, with SF-268 CNS, in the test on SF-539 CNS, with UACC-257 melanoma and in the test with HCC-2998 colon was above 100 µM throughout. Further, the TGI in the test on 786-0 renal was above 31.6 µM.
As for `CC(C)c1ccc2[nH]c(O)c(-c3[nH]c4ccccc4c3N=O)c2c1`, the TGI stood at 14.8 µM with HCT-15 colon; 20.8 µM with DU-145 prostate; 12.9 µM with CCRF-CEM leukemia; 20.4 µM in the test on SF-268 CNS; 24.5 µM with UACC-257 melanoma; 16.1 µM in the test on HCC-2998 colon. Besides, the TGI with 786-0 renal is 16.8 µM.
With `O=C(/C=C/c1ccc(O)c([N+](=O)[O-])c1)CC(=O)/C=C/c1ccc(O)c([N+](=O)[O-])c1`, the TGI in the test with HCT-15 colon, with DU-145 prostate, in the test with CCRF-CEM leukemia, with SF-268 CNS, in the test on SF-539 CNS and with UACC-257 melanoma was above 100 µM each time. This molecule showed a TGI in the test on 786-0 renal above 100 µM.
For `CC(C)=CCOC(=O)C(C)=[N+]=[N-]`, the TGI in the test with HCT-15 colon, in the test with DU-145 prostate, with SF-268 CNS, in the test with UACC-257 melanoma, in the test with HCC-2998 colon and in the test on 786-0 renal was above 100 µM throughout.
Turning to `CCN1CC2=C(NC(=S)NC2c2ccc(Cl)cc2)/C(=C/c2ccc(Cl)cc2)C1` (stereo unspecified), the TGI in the test on HCT-15 colon is above 100 µM; in the test on DU-145 prostate, above 100 µM; in the test on CCRF-CEM leukemia, 87.7 µM; with SF-268 CNS, above 100 µM; in the test with UACC-257 melanoma, above 100 µM; in the test with HCC-2998 colon it was above 100 µM. For the same molecule, the TGI in the test on 786-0 renal was above 100 µM.
